Reference: ChEMBL document CHEMBL3739371, “Small molecules enhance functional O-mannosylation of Alpha-dystroglycan” (Bioorg Med Chem, 2015)
Calls of active or inactive are those of the source. The calls are words filed in the database; no cut-off is given here.

Assays:
[1] = target: T1, Dystroglycan (Cricetulus griseus) (UniProt G3H8F4); experiment: Increase of functional O-mannosylation of alpha-dystroglycan in Chinese hamster pro5 cells expressing LARGE after 48 hrs by alpha-screen assay; assay type: cell-based
T1 sequence (whole entry): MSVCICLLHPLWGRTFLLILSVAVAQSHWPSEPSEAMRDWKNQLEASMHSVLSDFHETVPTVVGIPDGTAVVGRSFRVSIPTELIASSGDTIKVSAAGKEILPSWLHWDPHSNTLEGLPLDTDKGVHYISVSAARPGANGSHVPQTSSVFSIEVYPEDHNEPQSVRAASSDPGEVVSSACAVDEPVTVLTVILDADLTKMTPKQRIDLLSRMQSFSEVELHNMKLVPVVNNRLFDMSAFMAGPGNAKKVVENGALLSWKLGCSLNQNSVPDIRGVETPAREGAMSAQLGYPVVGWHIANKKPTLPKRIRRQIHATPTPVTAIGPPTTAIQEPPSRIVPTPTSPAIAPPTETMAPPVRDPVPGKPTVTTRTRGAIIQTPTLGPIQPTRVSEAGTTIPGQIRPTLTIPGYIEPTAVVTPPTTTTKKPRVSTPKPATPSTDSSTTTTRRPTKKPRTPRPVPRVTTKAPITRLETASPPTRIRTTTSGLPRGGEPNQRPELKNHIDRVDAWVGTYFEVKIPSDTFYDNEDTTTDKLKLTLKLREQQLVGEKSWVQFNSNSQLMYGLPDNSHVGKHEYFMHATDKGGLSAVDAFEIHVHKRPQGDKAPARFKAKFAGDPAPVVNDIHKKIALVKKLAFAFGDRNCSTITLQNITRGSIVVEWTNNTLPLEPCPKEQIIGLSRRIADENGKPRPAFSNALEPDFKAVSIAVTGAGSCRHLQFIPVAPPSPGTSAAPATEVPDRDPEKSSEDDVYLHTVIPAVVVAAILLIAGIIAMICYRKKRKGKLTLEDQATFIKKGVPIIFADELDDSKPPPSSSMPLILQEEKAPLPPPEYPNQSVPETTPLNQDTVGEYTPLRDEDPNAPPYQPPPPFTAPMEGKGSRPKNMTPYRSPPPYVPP

[2] = target: T2, Dystroglycan 1 (Mus musculus) (UniProt Q62165); experiment: Increase of functional O-mannosylation of alpha-dystroglycan in mouse C2C12 cells expressing LARGE after 48 hrs by alpha-screen assay; assay type: cell-based
T2 sequence (whole entry): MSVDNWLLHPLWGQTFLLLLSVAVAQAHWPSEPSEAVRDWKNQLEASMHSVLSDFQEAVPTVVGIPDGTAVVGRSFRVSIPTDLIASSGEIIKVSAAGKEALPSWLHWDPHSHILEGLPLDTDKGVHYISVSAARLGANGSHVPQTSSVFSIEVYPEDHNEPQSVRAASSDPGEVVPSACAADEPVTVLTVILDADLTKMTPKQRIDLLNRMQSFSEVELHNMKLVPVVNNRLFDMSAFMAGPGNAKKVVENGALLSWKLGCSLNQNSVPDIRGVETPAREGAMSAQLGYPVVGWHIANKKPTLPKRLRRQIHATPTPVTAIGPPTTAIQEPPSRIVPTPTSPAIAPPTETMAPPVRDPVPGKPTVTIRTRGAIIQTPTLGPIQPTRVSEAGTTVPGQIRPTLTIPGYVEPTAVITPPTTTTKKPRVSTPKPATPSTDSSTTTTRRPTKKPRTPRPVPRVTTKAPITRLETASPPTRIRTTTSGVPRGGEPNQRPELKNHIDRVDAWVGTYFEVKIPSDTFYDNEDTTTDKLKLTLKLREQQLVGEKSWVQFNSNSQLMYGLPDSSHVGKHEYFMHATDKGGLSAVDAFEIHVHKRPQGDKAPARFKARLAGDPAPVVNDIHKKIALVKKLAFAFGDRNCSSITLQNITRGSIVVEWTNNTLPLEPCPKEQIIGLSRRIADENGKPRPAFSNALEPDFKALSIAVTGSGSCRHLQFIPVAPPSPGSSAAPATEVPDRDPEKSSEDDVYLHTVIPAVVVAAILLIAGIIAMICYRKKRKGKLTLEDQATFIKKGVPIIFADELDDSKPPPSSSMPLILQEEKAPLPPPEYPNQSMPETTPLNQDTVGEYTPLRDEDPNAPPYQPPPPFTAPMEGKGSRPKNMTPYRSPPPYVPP

[3] = target: T3, Dystroglycan 1 (Homo sapiens) (UniProt Q14118); experiment: Increase of functional O-mannosylation of alpha-dystroglycan in human myotubes expressing myogenin after 48 hrs by alpha-screen assay
T3 sequence (whole entry): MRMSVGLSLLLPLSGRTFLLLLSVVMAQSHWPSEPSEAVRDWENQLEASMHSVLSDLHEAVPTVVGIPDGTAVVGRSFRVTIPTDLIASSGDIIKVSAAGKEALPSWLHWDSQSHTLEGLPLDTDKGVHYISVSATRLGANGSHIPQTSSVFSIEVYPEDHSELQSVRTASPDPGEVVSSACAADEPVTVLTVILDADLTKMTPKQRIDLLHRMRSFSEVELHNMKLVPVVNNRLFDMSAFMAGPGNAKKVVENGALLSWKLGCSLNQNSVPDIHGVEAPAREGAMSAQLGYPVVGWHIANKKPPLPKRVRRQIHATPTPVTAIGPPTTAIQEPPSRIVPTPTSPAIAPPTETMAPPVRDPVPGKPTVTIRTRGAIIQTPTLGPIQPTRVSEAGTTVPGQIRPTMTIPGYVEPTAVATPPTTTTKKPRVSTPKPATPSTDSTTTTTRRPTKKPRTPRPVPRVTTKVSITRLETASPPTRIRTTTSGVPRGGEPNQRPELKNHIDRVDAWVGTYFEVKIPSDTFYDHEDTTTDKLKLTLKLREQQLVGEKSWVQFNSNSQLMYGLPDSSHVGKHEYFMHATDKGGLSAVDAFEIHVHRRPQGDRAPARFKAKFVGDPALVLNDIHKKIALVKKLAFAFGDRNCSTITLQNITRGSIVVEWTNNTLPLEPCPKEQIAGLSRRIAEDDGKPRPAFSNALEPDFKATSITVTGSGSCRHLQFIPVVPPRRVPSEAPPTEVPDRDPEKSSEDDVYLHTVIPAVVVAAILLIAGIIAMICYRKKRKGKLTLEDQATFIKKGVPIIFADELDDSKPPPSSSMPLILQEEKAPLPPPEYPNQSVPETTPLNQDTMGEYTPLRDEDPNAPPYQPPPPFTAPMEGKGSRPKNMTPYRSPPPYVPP

[4] = target: T3, Dystroglycan 1 (Homo sapiens); experiment: Increase of functional O-mannosylation of alpha-dystroglycan in human myoblasts after 48 hrs by immunofluorescence assay
[5] = target: T3, Dystroglycan 1 (Homo sapiens); experiment: Increase of functional O-mannosylation of alpha-dystroglycan in human myotubes after 48 hrs by immunofluorescence assay
[6] = target: T2, Dystroglycan 1 (Mus musculus); experiment: Increase of functional O-mannosylation of alpha-dystroglycan in mouse C2C12 cells expressing myogenin after 48 hrs by immunofluorescence assay; assay type: cell-based
[7] = target: T2, Dystroglycan 1 (Mus musculus); experiment: Increase of functional O-mannosylation of alpha-dystroglycan in mouse C2C12 cells after 48 hrs by immunofluorescence assay; assay type: cell-based
[8] = target: T1, Dystroglycan (Cricetulus griseus); experiment: Increase of functional O-mannosylation of alpha-dystroglycan in Chinese hamster Lec15.2 cells after 24 hrs by fluorescence assay
[9] = target: T1, Dystroglycan (Cricetulus griseus); experiment: Increase of functional O-mannosylation of alpha-dystroglycan in Chinese hamster pgsl-208 cells after 24 hrs by fluorescence assay
[10] = target: T1, Dystroglycan (Cricetulus griseus); experiment: Increase of functional O-mannosylation of alpha-dystroglycan in Chinese hamster B421 cells after 24 hrs by fluorescence assay relative to control; assay type: cell-based
[11] = target: T3, Dystroglycan 1 (Homo sapiens); experiment: Increase of functional O-mannosylation of alpha-dystroglycan in FKRP-deficient human myotubes after 24 hrs by fluorescence assay

In the case of `CCC(c1nnnn1Cc1cccs1)N1CCN(c2nc3cc(N)cc(F)c3s2)CC1` (stereo unspecified), the EC1.5 [1] is reported as 1.2 µM, the fold change (FC) [2] is reported as 8 and the Activity [3] is reported as “Active”. For the same compound, the Activity [4] was “inactive”, the Activity [5] was “inactive” and the Activity [6] was “Active”. For the same compound, the Activity [7] was “Active”, the Activity [8] was “inactive” and the Activity [9] was “inactive”. For the same compound, the fold change (FC) [10] was under 6 and the Activity [11] was “Active”.
